Results published in BindingDB's records for PubMed 1325033 (Universit&Acute, 1992).
“And” between values parts separate entries of the source, which are not always exact repeats. Identical values can stand only once. Peptide text beside a SMILES is read from it.

Target: T1, Pituitary adenylate cyclase-activating polypeptide (Rattus norvegicus, UniProt P13589)
T1 sequence (P13589 whole entry): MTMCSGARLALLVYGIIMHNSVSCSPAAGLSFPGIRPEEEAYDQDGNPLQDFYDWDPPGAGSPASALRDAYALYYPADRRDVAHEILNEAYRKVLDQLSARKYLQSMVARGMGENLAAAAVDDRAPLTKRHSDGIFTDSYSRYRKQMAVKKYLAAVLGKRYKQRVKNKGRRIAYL

| Compound | Ki |
| --- | --- |
| H-SNGIFTDSYSRYRKQMAVKKYLAAVL-NH2 [[Des-His1,Asn3]PACAP-27] | 1500 nM and 5000 nM |
| H-TDSYSRYRKQMAVKKYLAAVL-NH2 [PACAP(6-27)] | 4000 nM and > 10000 nM |
| CCC(C)[C@H](NC(=O)CN)C(=O)N[C@@H](Cc1ccccc1)C(=O)N[C@H](C(=O)N[C@@H](CC(=O)O)C(=O)N[C@@H](CO)C(=O)N[C@@H](Cc1ccc(O)cc1)C(=O)N[C@@H](CO)C(=O)N[C@@H](CCCN=C(N)N)C(=O)N[C@@H](Cc1ccc(O)cc1)C(=O)N[C@@H](CCCN=C(N)N)C(=O)N[C@@H](CCCCN)C(=O)N[C@@H](CCC(N)=O)C(=O)N[C@@H](CCSC)C(=O)N[C@@H](C)C(=O)N[C@H](C(=O)N[C@@H](CCCCN)C(=O)N[C@@H](CCCCN)C(=O)N[C@@H](Cc1ccc(O)cc1)C(=O)N[C@@H](CC(C)C)C(=O)N[C@@H](C)C(=O)N[C@@H](C)C(=O)N[C@H](C(=O)N[C@@H](CC(C)C)C(=O)NCC(=O)N[C@@H](CCCCN)C(=O)N[C@@H](CCCN=C(N)N)C(=O)N[C@@H](Cc1ccc(O)cc1)C(=O)N[C@@H](CCCCN)C(=O)N[C@@H](CCC(N)=O)C(=O)N[C@@H](CCCN=C(N)N)C(=O)N[C@H](C(=O)N[C@@H](CCCCN)C(=O)N[C@@H](CC(N)=O)C(=O)N[C@@H](CCCCN)C(N)=O)C(C)C)C(C)C)C(C)C)[C@@H](C)O (some centres not stated) [PACAP(4-38)] (HELM PEPTIDE1{G.[CCC(C)[C@H](N[*:1])C(=O)[*:2]].F.T.D.S.Y.S.R.Y.R.K.Q.M.A.V.K.K.Y.L.A.A.V.L.G.K.R.Y.K.Q.R.V.K.N.K.[am]}$$$$V2.0) | 300 nM |
| CCC(C)[C@H](NC(=O)CNC(=O)[C@H](CC(=O)O)NC(=O)[C@@H](Cc1ccccc1)NC(=O)[C@@H](N)Cc1cnc[nH]1)C(=O)N[C@@H](Cc1ccccc1)C(=O)N[C@H](C(=O)N[C@@H](CC(=O)O)C(=O)N[C@@H](CO)C(=O)N[C@@H](Cc1ccc(O)cc1)C(=O)N[C@@H](CO)C(=O)N[C@@H](CCCN=C(N)N)C(=O)N[C@@H](Cc1ccc(O)cc1)C(=O)N[C@@H](CCCN=C(N)N)C(=O)N[C@@H](CCCCN)C(=O)N[C@@H](CCC(N)=O)C(=O)N[C@@H](CCSC)C(=O)N[C@@H](C)C(=O)N[C@H](C(=O)N[C@@H](CCCCN)C(=O)N[C@@H](CCCCN)C(=O)N[C@@H](Cc1ccc(O)cc1)C(=O)N[C@@H](CC(C)C)C(=O)N[C@@H](C)C(=O)N[C@@H](C)C(=O)N[C@H](C(=O)N[C@@H](CC(C)C)C(N)=O)C(C)C)C(C)C)[C@@H](C)O (stereo partly drawn) [[D-Phe2]PACAP-27] | 350 nM and 1000 nM |

Further lines, results first:

| Ki | Compound |
| --- | --- |
| 25 nM and 150 nM | H-TDSYSRYRKQMAVKKYLAAVLGKRYKQRVKNK-NH2 [PACAP(7-38)] |
| 300 nM and 2000 nM | H-FTDSYSRYRKQMAVKKYLAAVL-NH2 [PACAP(5-27)] |
| 5 nM and 40 nM | CCC(C)[C@H](NC(=O)CNC(=O)[C@H](CC(=O)O)NC(=O)[C@@H](Cc1ccccc1)NC(=O)[C@@H](N)Cc1cnc[nH]1)C(=O)N[C@@H](Cc1ccccc1)C(=O)N[C@H](C(=O)N[C@@H](CC(=O)O)C(=O)N[C@@H](CO)C(=O)N[C@@H](Cc1ccc(O)cc1)C(=O)N[C@@H](CO)C(=O)N[C@@H](CCCN=C(N)N)C(=O)N[C@@H](Cc1ccc(O)cc1)C(=O)N[C@@H](CCCN=C(N)N)C(=O)N[C@@H](CCCCN)C(=O)N[C@@H](CCC(N)=O)C(=O)N[C@@H](CCSC)C(=O)N[C@@H](C)C(=O)N[C@H](C(=O)N[C@@H](CCCCN)C(=O)N[C@@H](CCCCN)C(=O)N[C@@H](Cc1ccc(O)cc1)C(=O)N[C@@H](CC(C)C)C(=O)N[C@@H](C)C(=O)N[C@@H](C)C(=O)N[C@H](C(=O)N[C@@H](CC(C)C)C(=O)NCC(=O)N[C@@H](CCCCN)C(=O)N[C@@H](CCCN=C(N)N)C(=O)N[C@@H](Cc1ccc(O)cc1)C(=O)N[C@@H](CCCCN)C(=O)N[C@@H](CCC(N)=O)C(=O)N[C@@H](CCCN=C(N)N)C(=O)N[C@H](C(=O)N[C@@H](CCCCN)C(=O)N[C@@H](CC(N)=O)C(=O)N[C@@H](CCCCN)C(N)=O)C(C)C)C(C)C)C(C)C)[C@@H](C)O (stereo partly drawn) [[D-Phe2]PACAP-38] (HELM PEPTIDE1{H.[dF].D.G.[CCC(C)[C@H](N[*:1])C(=O)[*:2]].F.T.D.S.Y.S.R.Y.R.K.Q.M.A.V.K.K.Y.L.A.A.V.L.G.K.R.Y.K.Q.R.V.K.N.K.[am]}$$$$V2.0) |
